One assay concerns γH2AX. Description: qIF of paired tumor biopsies: nuclear γH2AX. In kind it is in vivo, human. From the text: (§1) The LMP744 protocol collected pre-treatment (baseline) and on-treatment paired biopsies from patients in the expansion cohort. Core needle tumor biopsies (18-gauge) were collected and flash-frozen at point of collection per NCI SOPs (https://dctd.cancer.gov/ResearchResources/biomarkers/docs/par/SOP340507_Biopsy_Frozen.pdf) as described to preserve labile post-translational modifications such as phosphorylation. Biopsy pairs were thawed in formalin, fixed in paraffin embedded together with control tissues following NCI SOP340550 (https://dctd.cancer.gov/ResearchResources/biomarkers/DDR3/SOP340550_Biopsy_Section_Testis_Jejunum_Controls.pdf). TOP1 and TOP1cc were measured with a cocktail containing custom-conjugated rabbit monoclonal antibody anti-TOP1-DIG (Abcam, EPR5376 (2)) and mouse monoclonal antibody anti-TOP1cc (clone 1.1A [34, 35], EMD Millipore) that were detected with reporter secondary antibodies AlexaFluor-647 IgG fraction monoclonal mouse anti-digoxin (Jackson ImmunoResearch) and goat/anti-mouse AlexaFluor-488, respectively. Phosphorylated KAP1 (pKAP1, phosphorylated at S824) was measured using custom-conjugated pKAP1-pS824-DNP (Abcam, EPR5248) and detected with AlexaFluor-488 conjugated with anti-dinitrophenyl-KLH rabbit IgG Antibody Fraction (DNP-488, ThermoFisher). […] TOP1, γH2AX, pNBS1, and pKAP1 were measured as the percentage of DAPI-stained tumor cell nuclear area that was positive for the biomarker (% NAP); RAD51 [19] and TOP1cc was measured as a function of the percentage of nuclei with ≥ 5 foci (RAD51) or ≥ 19 foci (TOP1cc). Apoptosis was measured using a validated IFA of tumor cells positive for both cCasp3 blebbing in the cytoplasm and γH2AX in the nucleus. Anti-SLFN11 rabbit monoclonal antibody (Cell Signaling Technology, clone D8W1B) was detected by immunohistochemistry (IHC) using Bond Polymer Detection kit (Leica) and scanned in 20X widefield Aperio (Leica), and the distribution of staining intensity of tumor cell nuclei graded as 0, 1 + , 2 + or 3 + was converted into an H-score. […]

A further assay concerns the target T1, TOP1cc (Homo sapiens, UniProt P11387).
T1 construct: paired pre-treatment and on-treatment tumor biopsies (C1D2, 2–4 h after dosing) from 6 patients receiving LMP744 at the MTD; from tissue; host or cells: core needle tumor biopsies from patients (LMP744 expansion cohort)
T1 sequence (P11387 2-765 limits assumed): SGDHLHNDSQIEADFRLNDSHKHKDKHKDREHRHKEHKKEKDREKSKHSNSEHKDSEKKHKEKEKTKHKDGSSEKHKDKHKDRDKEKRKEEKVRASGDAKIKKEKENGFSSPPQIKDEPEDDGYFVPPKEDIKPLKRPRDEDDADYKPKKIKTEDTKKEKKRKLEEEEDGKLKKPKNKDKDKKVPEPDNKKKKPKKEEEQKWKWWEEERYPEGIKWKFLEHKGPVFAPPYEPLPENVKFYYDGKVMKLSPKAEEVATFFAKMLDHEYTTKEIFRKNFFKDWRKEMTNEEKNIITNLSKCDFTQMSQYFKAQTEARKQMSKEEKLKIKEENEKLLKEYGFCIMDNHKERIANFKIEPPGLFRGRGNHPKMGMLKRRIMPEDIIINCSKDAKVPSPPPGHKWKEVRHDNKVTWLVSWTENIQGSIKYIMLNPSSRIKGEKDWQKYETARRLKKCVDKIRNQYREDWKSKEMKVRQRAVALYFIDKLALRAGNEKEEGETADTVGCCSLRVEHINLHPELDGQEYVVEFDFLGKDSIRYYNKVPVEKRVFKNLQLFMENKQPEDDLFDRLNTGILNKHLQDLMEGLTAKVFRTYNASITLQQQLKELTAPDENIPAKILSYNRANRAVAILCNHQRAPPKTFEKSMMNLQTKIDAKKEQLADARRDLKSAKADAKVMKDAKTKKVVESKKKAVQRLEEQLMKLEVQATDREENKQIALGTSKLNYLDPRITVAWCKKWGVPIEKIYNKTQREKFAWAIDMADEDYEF
Description: qIF of paired tumor biopsies: TOP1cc foci. The note with it: for TOP1cc: C1D2. In kind it is in vivo.
Excerpt: as §1

For another assay, the system named is RAD51. The assay is described as follows: qIF of paired tumor biopsies: nuclear RAD51 foci. In kind it is in vivo, human. From the text:
(§2) The LMP744 protocol collected pre-treatment (baseline) and on-treatment paired biopsies from patients in the expansion cohort. Core needle tumor biopsies (18-gauge) were collected and flash-frozen at point of collection per NCI SOPs (https://dctd.cancer.gov/ResearchResources/biomarkers/docs/par/SOP340507_Biopsy_Frozen.pdf) as described to preserve labile post-translational modifications such as phosphorylation. Biopsy pairs were thawed in formalin, fixed in paraffin embedded together with control tissues following NCI SOP340550 (https://dctd.cancer.gov/ResearchResources/biomarkers/DDR3/SOP340550_Biopsy_Section_Testis_Jejunum_Controls.pdf). TOP1 and TOP1cc were measured with a cocktail containing custom-conjugated rabbit monoclonal antibody anti-TOP1-DIG (Abcam, EPR5376 (2)) and mouse monoclonal antibody anti-TOP1cc (clone 1.1A [34, 35], EMD Millipore) that were detected with reporter secondary antibodies AlexaFluor-647 IgG fraction monoclonal mouse anti-digoxin (Jackson ImmunoResearch) and goat/anti-mouse AlexaFluor-488, respectively. Phosphorylated KAP1 (pKAP1, phosphorylated at S824) was measured using custom-conjugated pKAP1-pS824-DNP (Abcam, EPR5248) and detected with AlexaFluor-488 conjugated with anti-dinitrophenyl-KLH rabbit IgG Antibody Fraction (DNP-488, ThermoFisher). […]

Assay [1] has as its system advanced, refractory solid tumors or lymphomas. The assay is described as follows: Phase 1 trial of LMP744: tumor response (RECIST v1.1), cycles completed. In kind it is in vivo, human. The method, then: Tumor responses were evaluated by serial CT scans according to RECIST v1.1 criteria. CT scans were performed every other cycle during the first year, then every 3 cycles after the first year. Toxicities associated with LMP776 were evaluated according to criteria specified in CTCAE version 4.0; toxicities associated with LMP744 were evaluated according to the criteria specified in CTCAE version 4.03 (on or before March 31, 2018) or version 5.0 (on or after April 1, 2018). Criteria for all versions can be found at https://ctep.cancer.gov/protocolDevelopment/electronic_applications/ctc.htm. Any patient who received a dose of either agent was considered eligible for toxicity evaluation.

A further assay concerns pNBS1. The assay is described as follows: qIF of paired tumor biopsies: nuclear pNBS1. In kind it is in vivo, human. The note with it: 6 patients at MTD; assay values never ≥ 4% NAP.
Excerpt: as §2

Here are results for one compound from PMC12122562, “Phase 1 studies of the indenoisoquinolines LMP776 and LMP744 in patients with solid tumors and lymphomas” (Cancer Chemotherapy and Pharmacology, 2025).

With `COc1cc2c3c(n(CCCNCCO)c(=O)c2cc1OC)-c1cc2c(cc1C3=O)OCO2` [LMP744], the “γH2AX, cohort mean treatment effect” value in the assay with γH2AX (6 patients at MTD, P = 0.1715) is given as “overall lack of treatment effect within the cohort”. Further, the “Nuclear γH2AX in tumor cells on treatment” value in the assay on γH2AX (patient 29 (SCLC, cPR) only, MTD, C1D2 2–4 h after dosing) was “above 4 % NAP”. The “Pharmacodynamic responses in tumor biopsies” value in the assay on γH2AX (patient with cPR) is “increased RAD51, phosphorylated KAP1 (pKAP1), γH2AX, and cleaved caspase-3 (cCasp3)”. Further, the “TOP1cc, change in the biopsy cohort” value at TOP1cc (6 patients at MTD, P = 0.1373) is on record as “no significant changes”. Further, the TOP1cc result at TOP1cc (patient 29, MTD) is recorded as “neither biomarker changed with treatment”. Further, on TOP1cc (patient 31, MTD), the TOP1cc entry is recorded as “decreased nearly to background levels”. Further, the “Patients with significant drug-induced increases in nuclear RAD51” value in the assay on RAD51 (MTD, C1D2, p = 0.0091 for group effect) is on record as 4 of 6. For the same compound, the “Nuclear RAD51 response” value with RAD51 (patient 29, MTD, C1D2) is “at least 5 % of cells with ≥ 5 foci”. In addition, the Overall response rate in assay [1] (35 patients) worked out at 3%. Moreover, in assay [1] (in vivo), the “Patients with a partial response (one confirmed)” value was “Two” and the “Patients with stable disease for ≥ 3 cycles” value was 12. Also, in assay [1] (patient 10, low-grade appendiceal mucinous neoplasm), the “Cycles of treatment completed with SD” value came to 31 cycles. Further, the pNBS1 pharmacodynamic response entry in the assay with pNBS1 was “failed to elicit a pNBS1 pharmacodynamic response”.
